The experiment deals with PBMCs from HIV-infected HLA-A2-positive subjects. The experiment can be described thus: IFNγ ELISpot with PBMCs from HIV-infected HLA-A2 subjects. Conditions: for % donors responding positively in ELISpots: Providence and Mali donors together; for IFNγ ELISpot response, donor H_0912: HLA-A A0201; for IFNγ ELISpot response, donor H_0865: HLA-A A02011; for IFNγ ELISpot response, donor 0015404: A02, A0285, A0286; for IFNγ ELISpot response, donor 0015299 / IFNγ ELISpot response, donor 0018349: A0208; for IFNγ ELISpot response, donor 0015269: A0209, A0231.

Where [1] appears, read: cohort #1 Providence, positive donors / 16 donors.
Where [2] appears, read: cohort #1 Providence, peptide 10 μg/ml, overnight 37°C.
Setting [3] is: cohort #3 Bamako, Mali, positive donors / 8 donors.
[4] abbreviates: cohort #3 Bamako, Mali, peptide 10 μg/ml, overnight 37°C.

With DIQKLVGKL [Peptide 1010], the “IFNγ ELISpot response, stated in words” value (PBMCs from HIV-1-infected HLA-A2 subjects, Providence and/or Bamako as stated) is “elicited IFNγ ELISpot responses”. Also, the “% donors responding positively in ELISpots” value (peptide 10 μg/ml) is 6.3%. The “Total responses per epitope” value under setting [1] is on record as 1/16. For the same sequence, under setting [2], the “IFNγ ELISpot response, donor H_0912” value is given as “- (ELISpot responses that fall below this cutoff point are indicated with a dash mark)” and the “IFNγ ELISpot response, donor H_0865” value is “- (ELISpot responses that fall below this cutoff point are indicated with a dash mark)”. Besides, for the setting “cohort #1 Providence, HLA-A A02011, A2901, peptide 10 μg/ml, overnight 37°C”, the “IFNγ ELISpot response, donor H_0836” value is listed as 64 spots per 10^6 PBMCs.

Turning to GIKPVVSTQL [Peptide 1001], for the setting “peptide 10 μg/ml”, the “% donors responding positively in ELISpots” value amounted to 20.8%. Moreover, the “Total responses per epitope” value under setting [1] is 2/16. Moreover, under setting [2], the “IFNγ ELISpot response, donor H_0912” value was 903 spots per 10^6 PBMCs and the “IFNγ ELISpot response, donor H_0865” value was “- (ELISpot responses that fall below this cutoff point are indicated with a dash mark)”. In addition, under “cohort #1 Providence, HLA-A A02011, A3401, peptide 10 μg/ml, overnight 37°C”, the “IFNγ ELISpot response, donor H_0854” value is given as 75 spots per 10^6 PBMCs. Besides, the “Total responses per epitope” value under setting [3] is 3/8. Also, under setting [4], the “IFNγ ELISpot response, donor 0015404” value worked out at 111 spots per 10^6 PBMCs; the “IFNγ ELISpot response, donor 0015299” value is 53 spots per 10^6 PBMCs; the “IFNγ ELISpot response, donor 0018349” value came out at 37 spots per 10^6 PBMCs; the “IFNγ ELISpot response, donor 0015269” value is recorded as “- (ELISpot responses that fall below this cutoff point are indicated with a dash mark)”.

Regarding ILKEPVHGVY [Peptide 1249], the “Subjects with a positive response” value (cohort #2 Providence, eight subjects) stood at 37.5%. Also, for the setting “cohort #2 Providence, positive donors / 8 donors”, the “Total responses per epitope” value is 3/8. Further, under “cohort #2 Providence, A2, A3, B44, Cw05, Cw07, peptide 10 μg/ml, overnight 37°C”, the “IFNγ ELISpot response, donor 0517001” value is recorded as 117 spots per 10^6 PBMCs. Besides, where the note is “cohort #2 Providence, A2, A30, B39, peptide 10 μg/ml, overnight 37°C”, the “IFNγ ELISpot response, donor 0902991” value turned out to be 2380 spots per 10^6 PBMCs.

For the sequence PLQLPPLERL [Peptide 2004], the “% donors responding positively in ELISpots” value (peptide 10 μg/ml) is given as 50.0%. For the same sequence, the “Total responses per epitope” value under setting [3] is given as 4/8. Under setting [4], the “IFNγ ELISpot response, donor 0015404” value was found to be 59 spots per 10^6 PBMCs; the “IFNγ ELISpot response, donor 0015299” value is given as 36 spots per 10^6 PBMCs; the “IFNγ ELISpot response, donor 0018349” value is recorded as 37 spots per 10^6 PBMCs; the “IFNγ ELISpot response, donor 0015269” value was “- (ELISpot responses that fall below this cutoff point are indicated with a dash mark)”.

RLEPWKHPG [Peptide 1017]: the “% donors responding positively in ELISpots” value (peptide 10 μg/ml) worked out at 6.3%. Further, the “Total responses per epitope” value under setting [1] is reported as 1/16. Moreover, under setting [2], the “IFNγ ELISpot response, donor H_0912” value worked out at 29 spots per 10^6 PBMCs and the “IFNγ ELISpot response, donor H_0865” value was “- (ELISpot responses that fall below this cutoff point are indicated with a dash mark)”.

As for RTLNAWVKV [Peptide 3003], for the setting “peptide 10 μg/ml”, the “% donors responding positively in ELISpots” value was found to be 25.0%. Under setting [3], the “Total responses per epitope” value was 2/8. Further, under setting [4], the “IFNγ ELISpot response, donor 0015404” value is on record as 43 spots per 10^6 PBMCs; the “IFNγ ELISpot response, donor 0015299” value was “- (ELISpot responses that fall below this cutoff point are indicated with a dash mark)”; the “IFNγ ELISpot response, donor 0018349” value is given as “- (ELISpot responses that fall below this cutoff point are indicated with a dash mark)”; the “IFNγ ELISpot response, donor 0015269” value is “- (ELISpot responses that fall below this cutoff point are indicated with a dash mark)”.

Take SAEPVPLQL [Peptide 2003]: where the note is “peptide 10 μg/ml”, the “% donors responding positively in ELISpots” value is reported as 50.0%. Also, under setting [3], the “Total responses per epitope” value is 4/8. Also, under setting [4], the “IFNγ ELISpot response, donor 0015404” value amounted to 50 spots per 10^6 PBMCs; the “IFNγ ELISpot response, donor 0015299” value came out at 25 spots per 10^6 PBMCs; the “IFNγ ELISpot response, donor 0018349” value was determined as 25 spots per 10^6 PBMCs; the “IFNγ ELISpot response, donor 0015269” value was “- (ELISpot responses that fall below this cutoff point are indicated with a dash mark)”.

As to WLWYIKIFI [Peptide 3002], under “peptide 10 μg/ml”, the “% donors responding positively in ELISpots” value worked out at 12.5%. For the same sequence, under setting [3], the “Total responses per epitope” value is given as 1/8. Moreover, under setting [4], the “IFNγ ELISpot response, donor 0015404” value stood at 63 spots per 10^6 PBMCs; the “IFNγ ELISpot response, donor 0015299” value was “- (ELISpot responses that fall below this cutoff point are indicated with a dash mark)”; the “IFNγ ELISpot response, donor 0018349” value is “- (ELISpot responses that fall below this cutoff point are indicated with a dash mark)”; the “IFNγ ELISpot response, donor 0015269” value was “- (ELISpot responses that fall below this cutoff point are indicated with a dash mark)”.

The values above are taken from paper PMC3522424 (Vaccine, 2012).
